Assay results as given in patent publication US8389679B2, “Targeted antimicrobial moieties” (priority 2009, dated 2013).
“Also recorded” adds a separate entry of the source. Where a SMILES comes first, the peptide text is derived from it. Where no end group is shown, it is not given here.

System: S. mutans
Assay: not given
Settings: not given

| Compound | S. mutans (MIC) |
| --- | --- |
| CC[C@H](C)[C@H](NC(=O)[C@H](Cc1ccccc1)NC(=O)CCCCCCCNC(=O)[C@H](Cc1ccccc1)NC(=O)[C@H](Cc1c[nH]cn1)NC(=O)[C@H](CC(C)C)NC(=O)[C@H](Cc1c[nH]cn1)NC(=O)[C@H](Cc1ccccc1)NC(=O)[C@H](Cc1c[nH]cn1)NC(=O)[C@@H](N)Cc1ccccc1)C(=O)N[C@@H](CCCCN)C(=O)N[C@@H](Cc1c[nH]cn1)C(=O)N[C@@H](Cc1ccccc1)C(=O)N[C@H](C(=O)N[C@@H](Cc1c[nH]cn1)C(=O)N[C@@H](CCCNC(=N)N)C(=O)N[C@@H](Cc1ccccc1)C(N)=O)[C@@H](C)CC [135(LC)2_1, FHFHLHF-[NH(CH2)7CO]-FIKHFIHRF] (HELM PEPTIDE1{F.H.F.H.L.H.F.[O=C(CCCCCCCN[*:1])[*:2]].F.I.K.H.F.I.H.R.F.[am]}$$$$V2.0; N-terminus assumed) | 64 µg/mL |
| Ac-FHFHLHFGGGFIKHFIHRF-NH2 [Ac135(L1)2_1, Ac-FHFHLHFGGGFIKHFIHRF] | 32 µg/mL |
| FHFHLHFAAAFIKHFIHRF-NH2 [135(L2)2_1, FHFHLHFAAAFIKHFIHRF] | 16 µg/mL |

Same assay, conditions: FIG. 17 and Table 16

| Compound | activity against S. mutans relative to progeny STAMPs |
| --- | --- |
| FHFHLHF (not fully specified (C-terminus)) [PL-135] | 2 to 4 fold |

Same assay, conditions: Library 2 STAMPs; all S. mutans isolates tested, minimum of three independent trials

| Compound | S. mutans (MIC) |
| --- | --- |
| CC[C@H](C)[C@H](NC(=O)[C@H](Cc1ccccc1)NC(=O)CNC(=O)CNC(=O)CNC(=O)[C@H](Cc1ccccc1)NC(=O)[C@H](Cc1c[nH]cn1)NC(=O)[C@H](CC(C)C)NC(=O)[C@H](Cc1c[nH]cn1)NC(=O)[C@H](Cc1ccccc1)NC(=O)[C@H](Cc1c[nH]cn1)NC(=O)[C@H](Cc1ccccc1)NC(=O)c1ccccc1)C(=O)N[C@@H](CCCCN)C(=O)N[C@@H](Cc1c[nH]cn1)C(=O)N[C@@H](Cc1ccccc1)C(=O)N[C@H](C(=O)N[C@@H](Cc1c[nH]cn1)C(=O)N[C@@H](CCCNC(=N)N)C(=O)N[C@@H](Cc1ccccc1)C(N)=O)[C@@H](C)CC [bz135(L1)2_1, benzoate-FHFHLHFGGGFIKHFIHRF] (HELM PEPTIDE1{[O=C(c1ccccc1)[*:2]].F.H.F.H.L.H.F.G.G.G.F.I.K.H.F.I.H.R.F.[am]}$$$$V2.0) | 32 µg/mL |

System: target microorganisms
Assay: Screen of synthesized peptides for binding to target microorganisms (targeting peptides, Tables 2 and 3)
Settings: microorganism(s) the targeting peptide was identified as binding to (Table 3)
Procedure: Once noted, these peptides were batch synthesized on a multiplex peptide synthesizer, yielding 5-10 mg of each peptide that could readily be screened for biological activity (e.g., binding activity and/or antimicrobial activity.
Other suitable targeting peptides include the peptides that have been identified as binding to particular target organisms as shown in Table 3 and/or Table 4.

| Compound | Target(s) |
| --- | --- |
| 1T-144 (IIELHPKSWTQDWRCSFL; synthetic novel tartgeting peptide IT-144) | A. naeslundii, F. nucleatum,; also recorded: P. gingivalis,; also recorded: T. denticolaS. gordonii,; also recorded: S. mitis, S. mutans, S. oralis,; also recorded: S. salivarious, S. sanguinis |
| 1T-145 (VEAGKRNISLENIEKISKGLGISISELFKYIEEGEDKIG; synthetic novel tartgeting peptide IT-145) | S. mitis, S. mutans, S. oralis |
| 1T-146 (RNSADNQTKIDKIRIDISLWDEHLNIVKQGK; synthetic novel tartgeting peptide IT-146) | A. naeslundii, F. nucleatum,; also recorded: P. gingivalis,; also recorded: T. denticolaS. gordonii,; also recorded: S. mitis, S. mutans, S. oralis,; also recorded: S. salivarious, S. sanguinis |
| 1T-147 (GVENRRFYERDVSKVSMMTSEAVAPRGGSK; synthetic novel tartgeting peptide IT-147) | A. naeslundii, F. nucleatum,; also recorded: P. gingivalis,; also recorded: T. denticolaS. gordonii,; also recorded: S. mitis, S. mutans, S. oralis,; also recorded: S. salivarious, S. sanguinis |
| 1T-148 (IVELDDTTILERALSMLGEANA; synthetic novel tartgeting peptide IT-148) | A. naeslundii, F. nucleatum,; also recorded: P. gingivalis,; also recorded: T. denticolaS. gordonii,; also recorded: S. mitis, S. mutans, S. oralis,; also recorded: S. salivarious, S. sanguinis |
| 1T-149 (SVRAVKPIDETVARHFPGDFIVN; synthetic novel tartgeting peptide IT-149) | A. naeslundii, F. nucleatum,; also recorded: P. gingivalis,; also recorded: T. denticolaS. gordonii,; also recorded: S. mitis, S. mutans, S. oralis,; also recorded: S. salivarious, S. sanguinis |
| 1T-150 (YINRRLKKAFSDADIKEAPAEFYEELRRVQYV; synthetic novel tartgeting peptide IT-150) | A. naeslundii, F. nucleatum,; also recorded: P. gingivalis,; also recorded: T. denticolaS. gordonii,; also recorded: S. mitis, S. mutans, S. oralis,; also recorded: S. salivarious, S. sanguinis |
| 1T-151 (SVRAVKPIDEIVAWHFPGDFIVN; synthetic novel tartgeting peptide IT-151) | A. naeslundii, F. nucleatum,; also recorded: P. gingivalis,; also recorded: T. denticolaS. gordonii,; also recorded: S. mitis, S. mutans, S. oralis,; also recorded: S. salivarious, S. sanguinis |
| 1T-152 (YVSADESAYNHIVTDDIPLADRRIEAVQQ; synthetic novel tartgeting peptide IT-152) | A. naeslundii, F. nucleatum,; also recorded: P. gingivalis; also recorded: S. epidermidis,; also recorded: S. gordonii, S. mitis, S. mutans,; also recorded: S. oralis, S. salivarious,; also recorded: S. sanguinis |
| 1T-153 (YIACPGYFY; synthetic novel tartgeting peptide IT-153) | A. naeslundii, F. nucleatum,; also recorded: P. gingivalis; also recorded: S. epidermidis,; also recorded: S. gordonii, S. mitis, S. mutans,; also recorded: S. oralis, S. salivarious,; also recorded: S. sanguinis |
| 1T-154 (YFSFLEIVGMARR; synthetic novel tartgeting peptide IT-154) | P. gingivalis |
| 1T-155 (LKLAFGVYPFQAMSQSDTAVSERNVLWR; synthetic novel tartgeting peptide IT-155) | A. naeslundii, F. nucleatum,; also recorded: P. gingivalis; also recorded: S. epidermidis,; also recorded: S. gordonii, S. mitis, S. mutans,; also recorded: S. oralis, S. salivarious,; also recorded: S. sanguinis |
| 1T-156 (GRFQISIRGEEKSKVKVQGKGTFTDRNTT; synthetic novel tartgeting peptide IT-156) | A. naeslundii, F. nucleatum,; also recorded: P. gingivalis,; also recorded: T. denticolaS. gordonii,; also recorded: S. mitis, S. mutans, S. oralis,; also recorded: S. salivarious, S. sanguinis |
| 1T-157 (RRFRKTTENREKSKNKKAVLGLSTTSTASY; synthetic novel tartgeting peptide IT-157) | A. naeslundii, F. nucleatum,; also recorded: P. gingivalis,; also recorded: T. denticolaS. gordonii,; also recorded: S. mitis, S. mutans, S. oralis,; also recorded: S. salivarious, S. sanguinis |
| 1T-158 (WENKPSPLGSIKKLQGLVYRLIGYRHFWV; synthetic novel tartgeting peptide IT-158) | A. naeslundii, F. nucleatum,; also recorded: P. gingivalis; also recorded: S. epidermidis,; also recorded: S. gordonii, S. mitis, S. mutans,; also recorded: S. oralis, S. salivarious,; also recorded: S. sanguinis |
| 1T-159 (IFSLHHFALICSEMGTFAVSKRAKYKWEVL; synthetic novel tartgeting peptide IT-159) | P. gingivalis |
| 1T-160 (AQYKYINKLLN; synthetic novel tartgeting peptide IT-160) | A. naeslundii, F. nucleatum,; also recorded: P. gingivalis,; also recorded: T. denticolaS. gordonii,; also recorded: S. mitis, S. mutans, S. oralis,; also recorded: S. salivarious, S. sanguinis |
| 1T-161 (NKVLQVEVMWDGSVVGRPAGVISIKSSKKG; synthetic novel tartgeting peptide IT-161) | A. naeslundii, F. nucleatum,; also recorded: P. gingivalis; also recorded: S. epidermidis,; also recorded: S. gordonii, S. mitis, S. mutans,; also recorded: S. oralis, S. salivarious,; also recorded: S. sanguinis |
| 1T-162 (QKAKEESDRKAAVSYNGFHRVNVVSIPK; synthetic novel tartgeting peptide IT-162) | A. naeslundii, F. nucleatum,; also recorded: P. gingivalis,; also recorded: T. denticolaS. gordonii,; also recorded: S. mitis, S. mutans, S. oralis,; also recorded: S. salivarious, S. sanguinis |
| 1T-163 (MENILIYIPMVLSPFGSGILLFLGKDRRYML; synthetic novel tartgeting peptide IT-163) | A. naeslundii, F. nucleatum,; also recorded: P. gingivalis; also recorded: S. epidermidis,; also recorded: S. gordonii, S. mitis, S. mutans,; also recorded: S. oralis, S. salivarious,; also recorded: S. sanguinis |
| 1T-164 (KKSHSQGKRKLKDLNSAYKIDNQLHYALR; synthetic novel tartgeting peptide IT-164) | A. naeslundii, F. nucleatum,; also recorded: P. gingivalis; also recorded: S. epidermidis,; also recorded: S. gordonii, S. mitis, S. mutans,; also recorded: S. oralis, S. salivarious,; also recorded: S. sanguinis |
| 1T-165 (CYDSFDFSIFVTFANRMKLSVGS; synthetic novel tartgeting peptide IT-165) | A. naeslundii, F. nucleatum,; also recorded: P. gingivalis; also recorded: S. epidermidis,; also recorded: S. gordonii, S. mitis, S. mutans,; also recorded: S. oralis, S. salivarious,; also recorded: S. sanguinis |
| 1T-166 (AQSAGQIKRKSKVRIHV; synthetic novel tartgeting peptide IT-166) | A. naeslundii, F. nucleatum,; also recorded: P. gingivalis; also recorded: S. epidermidis,; also recorded: S. gordonii, S. mitis, S. mutans,; also recorded: S. oralis, S. salivarious,; also recorded: S. sanguinis |
| 1T-167 (SRMSEHSPAGLVFEVGPMDKGSFIILDSYHPTVKK; synthetic novel tartgeting peptide IT-167) | A. naeslundii, F. nucleatum,; also recorded: P. gingivalis; also recorded: S. epidermidis,; also recorded: S. gordonii, S. mitis, S. mutans,; also recorded: S. oralis, S. salivarious,; also recorded: S. sanguinis |
| 1T-168 (ELHRIMSTEKIGAVTKMNFDTAPIMSILPIDIYPKEVGIGS; synthetic novel tartgeting peptide IT-168) | A. naeslundii, F. nucleatum,; also recorded: P. gingivalis; also recorded: S. epidermidis,; also recorded: S. gordonii, S. mitis, S. mutans,; also recorded: S. oralis, S. salivarious,; also recorded: S. sanguinis |
| 1T-169 (FARVRRLHQNRILTQPLTNLKYCLRQPIYSD; synthetic novel tartgeting peptide IT-169) | A. naeslundii, F. nucleatum,; also recorded: P. gingivalis; also recorded: S. epidermidis,; also recorded: S. gordonii, S. mitis, S. mutans,; also recorded: S. oralis, S. salivarious,; also recorded: S. sanguinis |
| 1T-170 (AYGKVFSMDIMLSENDKLIVLRISHHSAWH; synthetic novel tartgeting peptide IT-170) | P. gingivalis |
